Where a name gives a salt, the structure may show the parent alone. Each block holds one compound with its values, some of them ahead of it. Activity calls are given as the source filed them.
Key:
Format in all cases: functional
[1] = molecular target: Polyadenylate-binding protein 1 (Homo sapiens, UniProt P11940); assay: PABP inhibition in translation initiation, SAR follow-up (AID 435018)
[2] = molecular target: Eukaryotic translation initiation factor 4H (Homo sapiens, UniProt Q15056); assay: eIF4H inhibition in translation initiation, SAR follow-up (AID 435011)
[3] = molecular target: G-protein coupled receptor 55 (Homo sapiens, UniProt Q9Y2T6); assay: SAR analysis of selective Agonists of GPR55 using an Image-Based Assay - Set 2. [Related pubchem assays (depositor defined):AID1961, AID1965]
Cannabinoid receptor 1 [4] = molecular target: T1, Cannabinoid receptor 1 (Homo sapiens, UniProt P21554); assay: SAR analysis of antagonists of the Cannabinoid Receptor 1 using an Image-Based Assay - Set 3. [Related pubchem assays (depositor defined):AID1961, AID1965]
[5] = molecular target: T2, G-protein coupled receptor 35 (Homo sapiens, UniProt Q9HC97); assay: SAR analysis of Antagonists of the GPR35 Receptor using an Image-Based Assay - Set 4. [Related pubchem assays (depositor defined):[…]]
[6] = molecular target: T2, G-protein coupled receptor 35; assay: SAR analysis of Agonists of the GPR35 Receptor using an Image-Based Assay - Set 3. [Related pubchem assays (depositor defined):AID1961, AID1965]
Cannabinoid receptor 2 [7] = molecular target: T3, Cannabinoid receptor 2 (Homo sapiens, UniProt P34972); assay: SAR analysis of agonists of the Cannabinoid Receptor 2 using an Image-Based Assay - Set 2. [Related pubchem assays (depositor defined):AID1961, AID1965]
Cannabinoid receptor 2 [8] = molecular target: T3, Cannabinoid receptor 2; assay: SAR analysis of antagonists of the Cannabinoid Receptor 2 using an Image-Based Assay - Set 2. [Related pubchem assays (depositor defined):AID1961, AID1965]
Cannabinoid receptor 1 [9] = molecular target: T1, Cannabinoid receptor 1; assay: SAR analysis of agonists of the Cannabinoid Receptor 1 using an Image-Based Assay - Set 3. [Related pubchem assays (depositor defined):AID1961, AID1965]
[10] = molecular target: T4, Neuropeptides B/W receptor type 1 (Homo sapiens, UniProt P48145); assay: GPR7 antagonist potency, late-stage follow-up, cell-based, fluorescence, dose response (AID 463251)
T4 sequence (P48145 whole entry): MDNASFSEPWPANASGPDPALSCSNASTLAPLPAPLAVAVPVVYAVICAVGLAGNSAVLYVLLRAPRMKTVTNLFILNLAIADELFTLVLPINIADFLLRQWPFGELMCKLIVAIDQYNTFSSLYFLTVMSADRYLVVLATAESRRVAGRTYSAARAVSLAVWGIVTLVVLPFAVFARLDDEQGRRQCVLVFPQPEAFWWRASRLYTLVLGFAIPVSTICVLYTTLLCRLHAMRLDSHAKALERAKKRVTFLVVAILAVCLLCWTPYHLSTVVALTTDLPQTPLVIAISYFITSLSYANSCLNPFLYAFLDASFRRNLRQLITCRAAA

[11] = molecular target: Melanin-concentrating hormone receptor 1 (Homo sapiens, UniProt Q99705); assay: Late-stage fluorescence-based counterscreen for antagonists of the G-protein coupled receptor 7 (GPR7): cell-based dose response assay to identify antagonists of the melanin-concentrating hormone receptor 1 (MCHR1). [Related pubchem assays (depositor defined):AID1861, AID1880, AID1952, AID2148, AID2251, AID2257, AID485339];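 also: stimulated with 30 nM MCH peptide agonist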
[12] = cytotoxicity in NIH/3T3 mouse fibroblasts, dose response, cytotoxicity control, cell-based, mouse embryonic fibroblasts, dry powder, set 2 (AID 493247); details: Fibroblast
Trypanosoma cruzi = assay: growth inhibition of intracellular Trypanosoma cruzi, dose response, cell-based, plate reader, dry powder, set 3 (AID 493197)
[13] = molecular target: 5-hydroxytryptamine receptor 1A (Homo sapiens, UniProt P08908)
[14] = molecular target: T5, Short transient receptor potential channel 4 (Mus musculus, UniProt Q9QUQ5); assay: TRPC4 positive allosteric modulators, dose response, cell-based, HEK293 TRPC4/mu-opioid, Fluo-4 calcium, EC20 DAMGO (AID 434941)
T5 sequence (Q9QUQ5 whole entry): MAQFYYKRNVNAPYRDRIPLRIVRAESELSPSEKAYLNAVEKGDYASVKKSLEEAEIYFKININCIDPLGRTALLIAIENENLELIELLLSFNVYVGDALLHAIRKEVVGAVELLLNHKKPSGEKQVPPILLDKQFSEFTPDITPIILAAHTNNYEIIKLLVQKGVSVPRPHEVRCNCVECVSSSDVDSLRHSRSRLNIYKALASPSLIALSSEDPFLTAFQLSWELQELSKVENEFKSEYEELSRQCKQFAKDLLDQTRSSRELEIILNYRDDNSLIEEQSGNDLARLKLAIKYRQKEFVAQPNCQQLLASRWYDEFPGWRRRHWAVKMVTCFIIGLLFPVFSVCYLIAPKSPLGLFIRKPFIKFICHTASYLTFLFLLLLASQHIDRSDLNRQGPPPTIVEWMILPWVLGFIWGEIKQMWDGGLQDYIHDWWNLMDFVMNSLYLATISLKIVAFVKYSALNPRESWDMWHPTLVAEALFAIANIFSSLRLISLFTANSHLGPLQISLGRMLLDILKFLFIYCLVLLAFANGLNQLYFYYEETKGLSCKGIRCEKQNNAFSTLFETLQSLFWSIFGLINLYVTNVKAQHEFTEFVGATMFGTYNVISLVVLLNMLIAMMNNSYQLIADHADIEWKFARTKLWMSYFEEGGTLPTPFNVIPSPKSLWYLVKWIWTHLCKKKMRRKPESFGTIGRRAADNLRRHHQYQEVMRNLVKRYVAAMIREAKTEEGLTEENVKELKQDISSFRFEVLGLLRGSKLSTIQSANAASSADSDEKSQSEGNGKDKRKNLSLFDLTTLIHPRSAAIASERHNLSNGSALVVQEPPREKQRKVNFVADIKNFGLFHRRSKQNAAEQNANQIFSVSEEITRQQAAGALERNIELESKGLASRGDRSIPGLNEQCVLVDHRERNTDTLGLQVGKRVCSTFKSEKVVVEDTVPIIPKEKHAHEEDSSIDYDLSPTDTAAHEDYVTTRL

T3 sequence (P34972 whole entry): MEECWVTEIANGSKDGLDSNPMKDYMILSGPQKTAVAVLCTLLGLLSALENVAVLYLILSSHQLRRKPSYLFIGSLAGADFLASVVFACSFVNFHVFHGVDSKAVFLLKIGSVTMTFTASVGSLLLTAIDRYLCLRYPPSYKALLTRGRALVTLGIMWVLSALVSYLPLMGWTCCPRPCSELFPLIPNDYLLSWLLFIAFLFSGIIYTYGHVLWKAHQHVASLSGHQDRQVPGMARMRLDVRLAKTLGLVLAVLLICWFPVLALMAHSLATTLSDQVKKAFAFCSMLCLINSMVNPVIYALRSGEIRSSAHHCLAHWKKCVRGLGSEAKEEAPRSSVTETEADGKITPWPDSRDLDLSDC
T2 sequence (Q9HC97 whole entry): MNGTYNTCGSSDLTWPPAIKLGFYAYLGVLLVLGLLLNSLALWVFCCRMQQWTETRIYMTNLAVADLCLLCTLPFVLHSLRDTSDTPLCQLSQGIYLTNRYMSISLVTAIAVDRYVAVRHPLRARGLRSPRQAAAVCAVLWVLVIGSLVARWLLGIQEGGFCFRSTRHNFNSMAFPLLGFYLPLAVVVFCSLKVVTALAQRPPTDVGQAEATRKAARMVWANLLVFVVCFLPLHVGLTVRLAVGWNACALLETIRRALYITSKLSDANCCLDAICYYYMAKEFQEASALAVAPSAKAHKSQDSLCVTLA
T1 sequence (P21554 whole entry): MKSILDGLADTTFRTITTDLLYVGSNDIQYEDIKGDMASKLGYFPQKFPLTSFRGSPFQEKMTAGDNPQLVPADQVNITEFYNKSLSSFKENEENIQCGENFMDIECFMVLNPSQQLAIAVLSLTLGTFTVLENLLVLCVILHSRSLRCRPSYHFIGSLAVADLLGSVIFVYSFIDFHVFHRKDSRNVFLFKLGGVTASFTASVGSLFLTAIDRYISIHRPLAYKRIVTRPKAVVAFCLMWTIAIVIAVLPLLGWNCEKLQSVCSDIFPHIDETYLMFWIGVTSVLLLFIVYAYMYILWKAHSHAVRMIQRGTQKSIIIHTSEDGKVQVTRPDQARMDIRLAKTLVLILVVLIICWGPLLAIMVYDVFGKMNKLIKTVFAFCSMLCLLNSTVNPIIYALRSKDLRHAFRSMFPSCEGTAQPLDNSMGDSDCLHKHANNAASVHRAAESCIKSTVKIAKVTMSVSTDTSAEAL
Sequence of Melanin-concentrating hormone receptor 1 (Q99705 whole entry): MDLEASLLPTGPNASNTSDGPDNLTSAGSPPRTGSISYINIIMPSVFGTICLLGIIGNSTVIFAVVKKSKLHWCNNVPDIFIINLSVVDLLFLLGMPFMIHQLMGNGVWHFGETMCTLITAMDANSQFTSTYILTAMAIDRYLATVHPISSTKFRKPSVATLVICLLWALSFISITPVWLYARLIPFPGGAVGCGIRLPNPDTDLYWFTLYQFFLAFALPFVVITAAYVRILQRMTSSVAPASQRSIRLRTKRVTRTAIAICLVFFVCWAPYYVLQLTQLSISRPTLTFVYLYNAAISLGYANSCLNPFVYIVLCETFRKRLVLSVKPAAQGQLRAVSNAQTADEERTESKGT
Sequence of 5-hydroxytryptamine receptor 1A (P08908 whole entry): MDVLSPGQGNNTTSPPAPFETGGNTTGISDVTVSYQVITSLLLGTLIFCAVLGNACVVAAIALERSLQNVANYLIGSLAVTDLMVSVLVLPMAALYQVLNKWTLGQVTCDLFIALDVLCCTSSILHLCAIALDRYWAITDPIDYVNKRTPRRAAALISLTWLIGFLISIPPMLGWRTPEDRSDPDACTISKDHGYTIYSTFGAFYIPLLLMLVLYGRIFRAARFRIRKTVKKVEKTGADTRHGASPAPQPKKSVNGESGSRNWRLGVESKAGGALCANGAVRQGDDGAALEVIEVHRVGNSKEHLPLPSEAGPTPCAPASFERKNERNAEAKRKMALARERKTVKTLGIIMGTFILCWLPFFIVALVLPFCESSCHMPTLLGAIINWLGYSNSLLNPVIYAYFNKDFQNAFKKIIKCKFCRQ
Sequence of Polyadenylate-binding protein 1 (P11940 whole entry): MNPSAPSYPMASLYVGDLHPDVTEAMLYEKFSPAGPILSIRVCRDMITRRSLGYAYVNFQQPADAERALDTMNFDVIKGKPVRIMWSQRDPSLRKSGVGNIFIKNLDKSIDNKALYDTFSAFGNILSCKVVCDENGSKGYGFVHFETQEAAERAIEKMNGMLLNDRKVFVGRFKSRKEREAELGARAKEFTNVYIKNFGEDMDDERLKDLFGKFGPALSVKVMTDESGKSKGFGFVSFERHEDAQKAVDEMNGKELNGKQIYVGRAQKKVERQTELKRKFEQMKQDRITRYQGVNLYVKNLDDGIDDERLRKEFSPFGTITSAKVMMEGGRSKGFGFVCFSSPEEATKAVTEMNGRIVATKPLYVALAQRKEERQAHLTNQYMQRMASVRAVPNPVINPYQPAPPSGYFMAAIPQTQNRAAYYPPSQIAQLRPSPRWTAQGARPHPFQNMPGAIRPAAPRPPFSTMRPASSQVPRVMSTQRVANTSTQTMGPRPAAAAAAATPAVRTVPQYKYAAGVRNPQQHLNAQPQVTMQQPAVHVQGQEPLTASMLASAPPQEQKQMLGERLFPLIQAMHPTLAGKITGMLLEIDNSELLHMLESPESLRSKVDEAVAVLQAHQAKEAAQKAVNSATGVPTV
Sequence of G-protein coupled receptor 55 (Q9Y2T6 whole entry): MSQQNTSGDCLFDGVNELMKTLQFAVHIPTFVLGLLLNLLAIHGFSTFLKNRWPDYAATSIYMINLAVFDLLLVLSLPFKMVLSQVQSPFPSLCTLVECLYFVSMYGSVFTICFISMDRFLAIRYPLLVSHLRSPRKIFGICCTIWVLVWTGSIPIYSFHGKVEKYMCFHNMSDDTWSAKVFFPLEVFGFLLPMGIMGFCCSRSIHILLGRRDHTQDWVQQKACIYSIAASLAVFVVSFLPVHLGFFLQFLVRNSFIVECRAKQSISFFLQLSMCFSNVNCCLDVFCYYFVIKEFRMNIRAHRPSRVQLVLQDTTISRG

Structure (SMILES): COc1ccc([N+](=O)[O-])cc1NC(=O)COC(=O)c1ccccc1C(=O)c1ccccc1
IC50 [1]: > 100 µM (inactive)
IC50 [2]: > 100 µM (inactive)

Structure (SMILES): CC(C)c1ccc(-n2ncc(Cl)c(Oc3cccc(N(C)C)c3)c2=O)cc1
IC50 [10]: 1.6 µM (active)
IC50 [11]: 3.1 µM (active)

Structure (SMILES): O=C(Cc1cccnc1)N/N=C/c1ccc([N+](=O)[O-])o1
AC50 [12]: 23.1 µM (active)
AC50 (Trypanosoma cruzi): 0.131 µM (active)

Second part, the compound after the results:

EC50 [3]: > 32 µM (inactive)
IC50 (Cannabinoid receptor 1 [4]): > 32 µM (inactive)
IC50 [5]: > 32 µM (inactive)
EC50 [6]: > 32 µM (inactive)
EC50 (Cannabinoid receptor 2 [7]): > 32 µM (inactive)
IC50 (Cannabinoid receptor 2 [8]): > 32 µM (inactive)
EC50 (Cannabinoid receptor 1 [9]): > 32 µM (inactive)
Structure (SMILES): COc1ccc(-c2csc(NC(=O)CSc3nnc4c(C)cc5cc6c(cc5n34)OCO6)n2)cc1

EC50 [13]: 0.07 µM (active)
EC50 [14]: 3.35 µM (active)
Structure (SMILES): Cc1cc(C(C)(C)C)c(O)c(C)c1CC1=NCCN1 [OXYMETAZOLINE HYDROCHLORIDE]

From ChEMBL document CHEMBL1201862, “PubChem BioAssay data set” (2004)
